Measurements from patent US20150202224A1, “METHOD OF TREATING IRON DEFICIENCY ANEMIA” (Luitpold Pharmaceuticals, Inc., priority 2012, published 2015).
Read-outs that look alike come from different tables or passages of the source.

Experiments:
[1] = tested on: subjects with iron deficiency anemia (IDA); assay: Randomized trial of ferric carboxymaltose vs. oral iron in non-responders to the oral iron run-in: hemoglobin levels; assay type: in vivo, human; conditions: for Hemoglobin at baseline (Day 1), mean (SD): before randomized treatment, non-responders to oral iron run-in; for Hemoglobin change to Day 35, mean (SD) / Hemoglobin change to Day 35, median: change from baseline (Day 1) to Day 35; for percentage of subjects with a hemoglobin increase of ≧1 g/dL: non-responders to the oral iron run-in in whom hepcidin values were measured; for percentage of subjects with a hemoglobin increase of ≧1 g/dL / mean Hemoglobin increases / percentage of subjects with hemoglobin change ≧2 g/dL: after randomization; for mean Hemoglobin increases / percentage of subjects with hemoglobin change ≧2 g/dL: non-responders to the oral iron run-in
Protocol: The following example describes hepcidin measurements obtained during a randomized, multi-center, controlled trial comparing the efficacy and safety of ferric carboxymaltose in subjects with iron deficiency anemia (IDA) (see generally, Szczech 2011).
(§1) Ferric carboxymaltose (Group A) was administered at a dose of 15 mg/kg to a maximum 750 mg per dose administered intravenously on Day 0 and Day 7. Oral iron was given as ferrous sulfate 325 mg three times a day for an additional 14 days starting on Day 0.
Hemoglobin levels and markers of iron status were assessed up to 35 days and measures of safety and tolerability were assessed up to 120 days. Hemoglobin levels and markers of iron status were assessed at screening (Day […]), Day 1, and Day 35.
(§2) The following example describes the randomized study of ferric carboxymaltose (FCM) vs. oral iron therapy on non-responders. Baseline (Day 1) and post-treatment (Day 35) levels of hepcidin and hemoglobin were compared.

[2] = tested on: hepcidin; assay: Randomized trial of ferric carboxymaltose vs. oral iron in non-responders: serum hepcidin levels by C-ELISA; assay type: in vivo, human; conditions: for Hepcidin on Day 35, mean (SD) / Hepcidin on Day 35, median / Hepcidin at baseline (Day 1), mean (SD) / Hepcidin at baseline (Day 1), median: non-responders to oral iron run-in; for Hepcidin at baseline (Day 1), mean (SD): before randomized treatment; for Hepcidin change to Day 35, mean (SD) / Hepcidin change to Day 35, median: change from baseline (Day 1) to Day 35; for change in hepcidin from baseline (Day 1) to Day 35, in words: non-responders to the oral iron run-in
Protocol: as §1
Hepcidin levels were analyzed from serum samples obtained at screening (Day […]) in an initial Analysis Group (I) of 44 subjects, 22 responders, and 22 non-responders. A hepcidin value of ≧20 ng/mL was identified as a cutoff for further study in the determination of predictive values for non-responsiveness to 14 day oral iron run-in in 240 subjects (Analysis Group II).
Hepcidin levels were also assessed after the oral iron run-in (Day 1) and after treatment with intravenous (IV) iron or oral iron post-randomization (Day 35). Hepcidin levels were measured using a commercially available competitive enzyme-linked immunosorbent assay (C-ELISA). Samples were collected by the investigator at the site, stored by a contract research organization (Covance, Indianapolis, Ind.) and sent to a commercial laboratory (Intrinsic LifeSciences, La Jolla, Calif.) for analysis.
as §2

[3] = tested on: subjects with iron deficiency anemia (IDA); conditions: Analysis Group II, ferrous sulfate 325 mg three times daily for 14 days
Protocol: Eligibility for this trial included subjects≧18 years of age with hemoglobin≦11 g/dL and IDA of any etiology with ferritin≦100 ng/mL, or ≦300 ng/mL when transferrin saturation (TSAT) was ≦30%.
The following example describes the determination and comparison of hepcidin levels in 240 subjects with response to oral iron. Hepcidin and other iron indices were measured and compared. The objective of the study was to determine the baseline characteristics of the subject population and to compare levels of hepcidin, hemoglobin, and iron indices in responders and non-responders after a 14 day treatment of oral iron.

[4] = cited from earlier work
[5] = tested on: rabbit; conditions: intra-arterial, perivenous or intravenous; cited from earlier work
[6] = tested on: dextran antibodies; conditions: cited from earlier work
[7] = tested on: rodents and dogs; conditions: single dose; cited from earlier work
[8] = in vivo; cited from earlier work
[9] = in vitro and in vivo; cited from earlier work
[10] = tested on: dogs and rats; conditions: cumulative doses over 13 weeks, dose-related clinical signs of iron accumulation in liver, spleen, kidneys; cited from earlier work
[11] = listed as ferric carboxymaltose

ferrous sulfate [Oral iron]
Hemoglobin on Day 35, mean (SD) [1]: 11.0 (1.3) g/dL
Hemoglobin on Day 35, median [1]: 10.9 g/dL
Hemoglobin at baseline (Day 1), median [1]: 10.7 g/dL
Hemoglobin at baseline (Day 1), mean (SD) [1]: 10.4 (1.2) g/dL
Hemoglobin change to Day 35, mean (SD) [1]: 0.6 (0.9) g/dL
Hemoglobin change to Day 35, median [1]: 0.5 g/dL
Hemoglobin change to Day 35, mean (SD) ([1]; listed as oral iron): 0.6 g/dL
percentage of subjects with a hemoglobin increase of ≧1 g/dL [1]: 20.8%
mean Hemoglobin increases [1]: 0.6±0.9 gm/dL
percentage of subjects with hemoglobin change ≧2 g/dL [1]: 5.2%
Hepcidin on Day 35, mean (SD) [2]: 29.0 (53.894) ng/mL
Hepcidin on Day 35, median [2]: 10.5 ng/mL
Hepcidin at baseline (Day 1), mean (SD) [2]: 32.0 (44.314) ng/mL
Hepcidin at baseline (Day 1), mean (SD) ([2]; listed as oral iron): 32.03 ng/mL
Hepcidin at baseline (Day 1), median [2]: 19.6 ng/mL
Hepcidin change to Day 35, mean (SD) [2]: −3.02 (41.793) ng/mL
Hepcidin change to Day 35, median [2]: -6.0 ng/mL
change in hepcidin from baseline (Day 1) to Day 35, in words [2]: no significant change
hemoglobin change after the 14 day oral iron run-in, non-responders ([3]; non-responders (Hb Δ <1 g/dL)): 0.2 ± 0.4 g/dL
hemoglobin change after the 14 day oral iron run-in, responders ([3]; responders (Hb Δ ≧1 g/dL)): 1.8 ± 0.6 g/dL

iron sucrose
injected amount still in the blood ([4]; in vivo, iv): 2 to 13%
projected calculated terminal half-life (t½) ([4]; in vivo, iv): 6 h

polynuclear iron (III)-hydroxide 4(R)-(poly-(1→4)-O-α-glucopyranosyl)-oxy-2(R),3(S),5(R),6-tetrahydroxy-hexanoate [FCM]
treatment-related local tissue irritation [5]: No treatment-related local tissue irritation was observed
reaction with dextran antibodies [6]: does not react with dextran antibodies
specific responses in a dextran antigenicity test [6]: no specific responses
Hemoglobin on Day 35, mean (SD) [1]: 12.0 (1.4) g/dL
Hemoglobin on Day 35, median [1]: 12.2 g/dL
Hemoglobin at baseline (Day 1), median [1]: 10.4 g/dL
Hemoglobin at baseline (Day 1), mean (SD) [1]: 10.3 (1.1) g/dL
Hemoglobin change to Day 35, mean (SD) [1]: 1.7 (1.3) g/dL
Hemoglobin change to Day 35, median [1]: 1.7 g/dL
Hemoglobin change to Day 35, mean (SD) [1, 11]: 1.7 g/dL
percentage of subjects with a hemoglobin increase of ≧1 g/dL [1]: 65.3%
mean Hemoglobin increases [1]: 1.7±1.3 gm/dL
percentage of subjects with hemoglobin change ≧2 g/dL [1]: 37.5%
safe and tolerated intravenous dose as multiple of the equivalent of an intravenous infusion of 1,000 mg iron once weekly in humans [7]: up to 60 times
Hepcidin on Day 35, mean (SD) [2]: 160.5 (181.543) ng/mL
Hepcidin on Day 35, median [2]: 112.6 ng/mL
Hepcidin on Day 35, mean (SD) [2, 11]: 160.51 ng/mL
Hepcidin at baseline (Day 1), mean (SD) [2]: 39.2 (92.236) ng/mL
Hepcidin at baseline (Day 1), mean (SD) [2, 11]: 39.15 ng/mL
Hepcidin at baseline (Day 1), median [2]: 2.5 ng/mL
Hepcidin change to Day 35, mean (SD) [2]: 121.35 (115.977) ng/mL
Hepcidin change to Day 35, median [2]: 91.9 ng/mL
Hepcidin change to Day 35, mean (SD) [2, 11]: 121.35 ng/mL
change in hepcidin from baseline (Day 1) to Day 35, in words [2]: significant increase
acute toxicity relative to iron sucrose [8]: one-fifth that of iron sucrose
mutagenicity [9]: no evidence that FCM is clastogenic, mutagenic, or causes chromosomal damage or bone marrow cell toxicity
injected amount still in the blood ([4]; eight hours after intravenous administration): 5 to 20%
projected calculated terminal half-life (t½) ([4]; intravenous): approximately 16 hours
no observed adverse effect level, cumulative dose [10]: up to 117 mg iron/kg body weight
